Key:
[1] = test system: SW620 (colorectal cancer cell line); assay: KRAS Cell Titer Glo (CTG) cell proliferation assay, SW620; type: cell-based; settings: Homo sapiens, SW-620, 168 h; SW620 cells, 7-day CTG, geomean IC50
In short: (§1)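 Compounds pre-dispensed in 0.1% DMSO before seeding H358 (300 cells/well), SW620 (750) or PANC08.13 (600); 7-day exposure at 37 °C, 5% CO2. Viability by CellTiter-Glo luminescence after 15 min at room temperature. Percent effect normalised to DMSO (0%) and 1 uM trametinib (100%); geomean IC50.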

[2] = target: T1, KRAS G12V (Homo sapiens (Human), UniProt P01116, G12V); assay: SPR binding affinity and kinetics, GDP-loaded KRAS G12V; settings: GDP loaded protein, geomean
Description: (§2) No additional regeneration was used.
(§3) Compound dissociation was monitored for at least 3600 seconds. […] No additional regeneration was used.
(§4) The adequateness of the fit was judged by c2 values and the randomness of residue distribution.

[3] = target: T2, KRAS G12C (Homo sapiens (Human), UniProt P01116, G12C); assay: SPR binding affinity and kinetics, GDP-loaded KRAS G12C; settings: GDP loaded protein, geomean
Description: as §2, §3, §4

[4] = target: T2, KRAS G12C; assay: SPR binding affinity and kinetics, GTPγS-loaded KRAS G12C; settings: GTPγS loaded protein, geomean
In short: (§5)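 Fits to the SPR data were assessed through c2 and whether residues scattered randomly; dissociation phases ran ≥3600 seconds, regeneration omitted.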

[5] = target: T3, KRAS Wild Type (Homo sapiens (Human), UniProt P01116); assay: SPR binding affinity and kinetics, GDP-loaded KRAS Wild Type; settings: GDP loaded protein, geomean
Description: as §2, §3, §4

[6] = target: T1, KRAS G12V; assay: SPR binding affinity and kinetics, GTPγS-loaded KRAS G12V; settings: GTPγS loaded protein, geomean
In short: as §5

[7] = target: T3, KRAS Wild Type; assay: SPR binding affinity and kinetics, GTPγS-loaded KRAS Wild Type; settings: GTPγS loaded protein, geomean
In short: as §5

[8] = target: T4, KRAS G12D (Homo sapiens (Human), UniProt P01116, G12D); assay: SPR binding affinity and kinetics, GDP-loaded KRAS G12D; settings: GDP loaded protein, geomean
Description: as §2, §3, §4

[9] = target: T4, KRAS G12D; assay: SPR binding affinity and kinetics, GTPγS-loaded KRAS G12D; settings: GTPγS loaded protein, geomean
In short: as §5

[10] = test system: H358 (non-small cell lung cancer cell line); assay: KRAS Cell Titer Glo (CTG) cell proliferation assay, H358; type: cell-based; settings: Homo sapiens, NCI-H358, 168 h; H358 cells, 7-day CTG, geomean IC50
In short: as §1

[11] = test system: PANC08.13 (pancreatic cancer cell line); assay: KRAS Cell Titer Glo (CTG) cell proliferation assay, PANC08.13; type: cell-based; settings: Homo sapiens, PANC-08-13, 168 h; PANC08.13 cells, 7-day CTG, geomean IC50
In short: as §1

[12] = target: NRAS Wild Type (Homo sapiens (Human), UniProt P01111); assay: SPR binding affinity and kinetics, GTPγS-loaded NRAS Wild Type; settings: GTPγS loaded protein, geomean
Description: as §2, §3, §4

[13] = target: HRAS Wild Type (Homo sapiens (Human), UniProt P01112); assay: SPR binding affinity and kinetics, GTPγS-loaded HRAS Wild Type; settings: GTPγS loaded protein, geomean
Description: as §2, §3, §4

T1 sequence (P01116 other isoform, or with tags, fused parts or gaps G12V): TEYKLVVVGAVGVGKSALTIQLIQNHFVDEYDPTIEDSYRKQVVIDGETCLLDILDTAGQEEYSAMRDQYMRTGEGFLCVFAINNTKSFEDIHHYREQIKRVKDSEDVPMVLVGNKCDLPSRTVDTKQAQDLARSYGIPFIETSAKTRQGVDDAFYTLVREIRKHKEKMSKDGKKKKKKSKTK
Chain of HRAS Wild Type (P01112 2-184): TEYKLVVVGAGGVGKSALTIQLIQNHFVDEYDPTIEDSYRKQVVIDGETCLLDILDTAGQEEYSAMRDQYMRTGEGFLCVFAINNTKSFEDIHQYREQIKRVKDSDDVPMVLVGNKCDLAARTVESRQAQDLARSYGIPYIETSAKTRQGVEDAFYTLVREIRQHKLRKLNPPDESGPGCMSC
Chain of NRAS Wild Type (P01111 2-185): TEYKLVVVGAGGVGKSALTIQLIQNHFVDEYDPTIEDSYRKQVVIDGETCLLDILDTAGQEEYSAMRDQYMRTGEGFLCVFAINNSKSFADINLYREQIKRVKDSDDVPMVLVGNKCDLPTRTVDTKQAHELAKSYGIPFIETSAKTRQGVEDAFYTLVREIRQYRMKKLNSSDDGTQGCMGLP
T2 sequence (P01116 other isoform, or with tags, fused parts or gaps G12C): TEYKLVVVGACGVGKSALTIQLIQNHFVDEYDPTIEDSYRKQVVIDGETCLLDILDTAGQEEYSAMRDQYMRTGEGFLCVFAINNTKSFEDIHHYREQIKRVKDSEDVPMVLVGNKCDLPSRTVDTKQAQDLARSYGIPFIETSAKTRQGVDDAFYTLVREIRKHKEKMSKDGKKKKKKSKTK
T3 sequence (P01116 other isoform, or with tags, fused parts or gaps): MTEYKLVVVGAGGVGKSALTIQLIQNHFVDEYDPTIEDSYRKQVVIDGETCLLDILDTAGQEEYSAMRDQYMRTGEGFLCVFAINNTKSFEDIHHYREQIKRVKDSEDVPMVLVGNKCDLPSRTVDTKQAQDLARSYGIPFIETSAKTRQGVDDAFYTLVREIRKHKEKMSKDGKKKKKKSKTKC
T4 sequence (P01116 other isoform, or with tags, fused parts or gaps G12D): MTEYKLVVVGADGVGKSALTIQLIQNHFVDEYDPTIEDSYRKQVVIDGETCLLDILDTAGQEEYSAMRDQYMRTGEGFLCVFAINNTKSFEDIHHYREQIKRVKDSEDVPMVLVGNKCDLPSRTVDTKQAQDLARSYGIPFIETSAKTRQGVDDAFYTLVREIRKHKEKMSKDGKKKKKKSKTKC

SMILES	IC50 [1] [nM]	Kd [2] [nM]	Kd [3] [nM]	Kd [4] [nM]	Kd [5] [nM]	Kd [6] [nM]	Kd [7] [nM]	Kd [8] [nM]	Kd [9] [nM]	IC50 [10] [nM]	IC50 [11] [nM]	Kd [12] [nM]	Kd [13] [nM]
Fc1c(-c2cccc3[nH]ncc23)nc2c3c(nc(OC[C@@]45CCCN4C[C@H](F)C5)nc13)N1CCCOC[C@H]1CO2 [Example 3, (8aS)-4-fluoro-2-{[(2R,7aS)-2-fluorotetrahydro-1H-pyrrolizin-7a(5H)-yl]methoxy}-5-(1H-indazol-4-yl)-8a,9,12,13-tetrahydro-8H,11H-7,10-dioxa-1,3,6,13a-tetraazanaphtho[1,8-ab]heptalene]	> 9990	> 10000	> 10000	> 1000	> 10000	> 1000	> 1000	> 10000	> 1000	> 9990	> 9990		
Fc1c(-c2c(Cl)c(Cl)cc3[nH]ncc23)nc2c3c(nc(OC[C@@]45CCCN4C[C@H](F)C5)nc13)N1CCCC[C@H]1CO2 [Example 4, (8aS)-5-(5,6-dichloro-1H-indazol-4-yl)-4-fluoro-2-{[(2R,7aS)-2-fluorotetrahydro-1H-pyrrolizin-7a(5H)-yl]methoxy}-8,8a,9,10,11,12-hexahydro-7-oxa-1,3,6,12a-tetraazabenzo[4,5]cyclohepta[1,2,3-de]naphthalene]	3380	2.6	4.29	2270	7.72	1590	2290	1.36	2030	534	299		
C=C1CN2CCC[C@@]2(COc2nc3c4c(nc(-c5c(C)ccc6[nH]ncc56)c(F)c4n2)OC[C@@H]2COCCCN32)C1 [Example 5, (8aS)-4-fluoro-2-{[(7aS)-2-methylidenetetrahydro-1H-pyrrolizin-7a(5H)-yl]methoxy}-5-(5-methyl-1H-indazol-4-yl)-8a,9,12,13-tetrahydro-8H,11H-7,10-dioxa-1,3,6,13a-tetraazanaphtho[1,8-ab]heptalene]	2680	2.76	1.95	1560	5.42	1430	1450	2.2	1240	2320	1040		
C[C@@H]1CCCc2cc3[nH]ncc3c(-c3nc4c5c(nc(OC[C@@]67CCCN6C[C@H](F)C7)nc5c3F)N3CCCOC[C@H]3CO4)c21 [Example 36, (8aS)-4-fluoro-2-{[(2R,7aS)-2-fluorotetrahydro-1H-pyrrolizin-7a(5H)-yl]methoxy}-5-[(5R)-5-methyl-5,6,7,8-tetrahydro-1H-benzo[f]indazol-4-yl]-8a,9,12,13-tetrahydro-8H,11H-7,10-dioxa-1,3,6,13a-tetraazanaphtho[1,8-ab]heptalene]	31			5		9	7		3	15	4	> 10000	> 10000
COC/C=C1\CN2CCC[C@@]2(COc2nc3c4c(nc(-c5c6c(cc7[nH]ncc57)CCC[C@H]6C)c(F)c4n2)OC[C@@H]2COCCCN32)C1 [Example 37, (8aS)-4-fluoro-2-{[(2Z,7aS)-2-(2-methoxyethylidene)tetrahydro-1H-pyrrolizin-7a(5H)-yl]methoxy}-5-[(5R)-5-methyl-5,6,7,8-tetrahydro-1H-benzo[f]indazol-4-yl]-8a,9,12,13-tetrahydro-8H,11H-7,10-dioxa-1,3,6,13a-tetraazanaphtho[1,8-ab]heptalene]	25			3		4	3		2	9	4	> 10000	> 10000

Results, then the molecule that gave them:

IC50 [1] [nM]	Kd [2] [nM]	Kd [3] [nM]	Kd [4] [nM]	Kd [5] [nM]	Kd [6] [nM]	Kd [7] [nM]	Kd [8] [nM]	Kd [9] [nM]	IC50 [10] [nM]	IC50 [11] [nM]	Kd [12] [nM]	Kd [13] [nM]	SMILES
7			2		2	2		1	10	< 1	> 10000	> 10000	C=C1CN2CCC[C@@]2(COc2nc3c4c(nc(-c5c(C6(C)CC6)c(Cl)cc6[nH]ncc56)c(F)c4n2)OC[C@@H]2COCCCN32)C1 [Example 39, (8aS)-5-[6-chloro-5-(1-methylcyclopropyl)-1H-indazol-4-yl]-4-fluoro-2-{[(7aS)-2-methylidenetetrahydro-1H-pyrrolizin-7a(5H)-yl]methoxy}-8a,9,12,13-tetrahydro-8H,11H-7,10-dioxa-1,3,6,13a-tetraazanaphtho[1,8-ab]heptalene]
36			4		4	5		2	25	5	> 10000	> 10000	Fc1c(-c2c(C3CC3)c(Cl)cc3[nH]ncc23)nc2c3c(nc(OC[C@@]45CCCN4CC(=C4COC4)C5)nc13)N1CCCOC[C@H]1CO2 [Example 41, (8aS)-5-(6-chloro-5-cyclopropyl-1H-indazol-4-yl)-4-fluoro-2-{[(7aS)-2-(oxetan-3-ylidene)tetrahydro-1H-pyrrolizin-7a(5H)-yl]methoxy}-8a,9,12,13-tetrahydro-8H,11H-7,10-dioxa-1,3,6,13a-tetraazanaphtho[1,8-ab]heptalene]
45			3		4	4		3	15	5	> 10000	> 10000	C=C1CN2CCC[C@@]2(COc2nc3c4c(nc(-c5c(C6CC6)c(Cl)cc6[nH]nc(Cl)c56)c(F)c4n2)OC[C@@H]2COCCCN32)C1 [Example 46, (8aS)-5-(3,6-dichloro-5-cyclopropyl-1H-indazol-4-yl)-4-fluoro-2-{[(7aS)-2-methylidenetetrahydro-1H-pyrrolizin-7a(5H)-yl]methoxy}-8a,9,12,13-tetrahydro-8H,11H-7,10-dioxa-1,3,6,13a-tetraazanaphtho[1,8-ab]heptalene]
11			4		4	3		2	14	10	> 10000	> 10000	C[C@@H]1CCCc2cc3[nH]ncc3c(-c3nc4c5c(nc(OC[C@@]67CCCN6CC(=C6COC6)C7)nc5c3F)N3CCCOC[C@H]3CO4)c21 [Example 47, (8aS)-4-fluoro-5-[(5R)-5-methyl-5,6,7,8-tetrahydro-1H-benzo[f]indazol-4-yl]-2-{[(7aS)-2-(oxetan-3-ylidene)tetrahydro-1H-pyrrolizin-7a(5H)-yl]methoxy}-8a,9,12,13-tetrahydro-8H,11H-7,10-dioxa-1,3,6,13a-tetraazanaphtho[1,8-ab]heptalene]
4			1		2	1		1	8	5	> 10000	> 10000	C/C=C1\CN2CCC[C@@]2(COc2nc3c4c(nc(-c5c6c(cc7[nH]ncc57)CCC[C@H]6C)c(F)c4n2)OC[C@@H]2COCCCN32)C1 [Example 53, (8aS)-2-{[(2Z,7aS)-2-ethylidenetetrahydro-1H-pyrrolizin-7a(5H)-yl]methoxy}-4-fluoro-5-[(5R)-5-methyl-5,6,7,8-tetrahydro-1H-benzo[f]indazol-4-yl]-8a,9,12,13-tetrahydro-8H,11H-7,10-dioxa-1,3,6,13a-tetraazanaphtho[1,8-ab]heptalene]
6			1		2	3		2	24	13	> 10000	> 10000	C[C@@H]1CCCc2cc3[nH]ncc3c(-c3nc4c5c(nc(OC[C@@]67CCCN6C/C(=C/F)C7)nc5c3F)N3CCCOC[C@H]3CO4)c21 [Example 55, (8aS)-4-fluoro-2-{[(2E,7aS)-2-(fluoromethylidene)tetrahydro-1H-pyrrolizin-7a(5H)-yl]methoxy}-5-[(5R)-5-methyl-5,6,7,8-tetrahydro-1H-benzo[f]indazol-4-yl]-8a,9,12,13-tetrahydro-8H,11H-7,10-dioxa-1,3,6,13a-tetraazanaphtho[1,8-ab]heptalene]

Source: patent US20250034173A1, “PYRIDO[4,3-D]PYRIMIDINE COMPOUNDS” (PFIZER INC., priority 2023, published 2025)
